From patent US20090076130A1, “COMPOUNDS FOR THE INHIBITION OF HISTONE DEACETYLASE” (NATUREWISE BIOTECH & MEDICALS CORPORATION, priority 2007, published 2009)

Columns and labels:
[1] = system: human breast MCF-7 cancer cells; experiment: Growth and morphology of breast cancer MCF-7 cells; type: cell-based
Experimental: The breast cancer MCF-7 cells, were cultured in Dulbecco's modified Eagle's medium (DMEM; Gibco) supplemented with penicillin G, streptomycin sulphate, 0.5 mM of L-glutamine and 10% fetal bovine serum (FBS; Gibco) at 37° C., 5% CO2 and 95% relative humidity. The cells were seeded at a density of 3×10^5 per well of 6-well plates. After 24 hours, the cells were treated with different concentrations of compound NBM-HD-1 and 4 mM sodium butyrate being used as the positive control. The cells were observed after 48 hours and counted after 96 hours. […] In FIG. 8(A), after the cells were incubated with 2.5 μg/mL (FIG. 8(A)-b), 5 μg/mL (FIG. 8(A)-c) and 10 μg/mL (FIG. 8(A)-d) of NBM-HD-1 for 48 hours, the density of MCF-7 cells reduced dramatically in comparison with that of the control group (FIG. 8(A)-a). The morphology of the MCF-7 cells in the experimental group changed in comparison with that in the control group. […] The results of the cell counting (FIG. 8(B)) indicate that, similar to sodium butyrate, NBM-HD-1 inhibits cell growth.
MCF-7 cancer cells were seeded at a density of 3×10^5 per well in 6-well plates. After 24 hours, the cells were treated with different concentrations of compound NBM-HD-2 and 4 mM sodium butyrate being used as the positive control. The cells were observed and counted after 72 hours. […] In FIG. 13(A), after the cells were incubated with 2.5 μg/mL (FIG. 13(A)-c), 5 μg/mL (FIG. 13(A)-d), 7.5 μg/mL (FIG. 13(A)-e) and 10 μg/mL (FIG. 13(A)-f) of NBM-HD-2 for 72 hours, the density of MCF-7 cells reduced dramatically in comparison with that of the control group (FIG. 13(A)-a). The morphology of the MCF-7 cells in the experimental group changed in comparison with that in the control group.
MCF-7 cancer cells were seeded at a density of 3×10^5 per well of 6-well plates. After 24 hours, the cells were treated with different concentrations of compound NBM-HD-3 and 4 mM sodium butyrate, which was being used as the positive control. The cells were observed and counted after 72 hours. […] In FIG. 14(A), after the cells were incubated with 2.5 μg/mL (FIG. 14(A)-c), 5 μg/mL (FIG. 14(A)-d), 7.5 μg/mL (FIG. 14(A)-e) and 10 μg/mL (FIG. 14(A)-f) of NBM-HD-3 for 72 hours, the density of MCF-7 cells reduced dramatically in comparison with that of the control group (FIG. 14(A)-a). The morphology of the MCF-7 cells in the experimental group changed in comparison with that in the control group. […] The results of the cell counting (FIG. 14(B)) indicate that, similar to sodium butyrate, NBM-HD-3 inhibits cell growth.

acetylated histone H4 = experiment: Western blotting of hyperacetylated histone H4 in C6 glioma cells; type: cell-based, rat
Experimental: Accumulation of hyperacetylated histone H4 was analyzed in the cell lysates by using Western Blotting and the antibody directed against acetylated histone H4 (Upstate). The C6 glioma cells were seeded at a density of 1×10^6 per 10 cm culture dish. After 24 hours, the cells were treated with 10 μg/mL of NBM-HD-1 or 4 mM sodium butyrate for several hours. The whole-cell lysates were prepared by using denaturing SDS sample buffer and then separated on 15% SDS-polyacrylamide gels. […] The amount of acetylated histones was hardly detectable in untreated C6 glioma cells. The amount of acetylated histone H4 of the cells treated with 4 mM sodium butyrate for 2 hours increased. Sodium butyrate was then removed from the culture medium. After 6 hours, the amount of acetylated histone H4 decreased. The accumulation of acetylated histone H4 increased in the cells treated with NBM-HD-1 for 2 hours. […] The highest histone acetylation appeared at 6 hours after the compound had been removed. […] Because NBM-HD-1 is more hydrophobic than sodium butyrate, NBM-HD-1 can be retained in the cells longer than sodium butyrate and continuously induce the acetylation of histone H4.

GFAP = GFAP expression in C6 glioma cells (immuno-fluorescent staining, RT-PCR); type: cell-based, rat
Experimental: After the C6 glioma cells were incubated with 10 μg/mL NBM-HD-1 for 24 hours, they were fixed and analyzed by the traditional immuno-fluorescent staining method. Staining of glia was carried out by using glial-specific GFAP antibody (SIGMA) as the primary antibody and a fluorescence labeled rabbit immuno-globulin (SIGMA) as the secondary antibody to bind with the primary antibody. The cells which are GFAP-positive were excited by a specific light source to emit fluorescence. Also, the nuclei were stained with DAPI. […] In contrast with the control group, more GFAP proteins were detected in the photos of the cells being treated with 10 μg/mL of NBM-HD-1.
The GFAP mRNA expression was examined by RT-PCR.

HDAC = HDAC Activity Assay Kit on nuclear extracts of treated C6 glioma cells; type: cell-based, rat; conditions: nuclear protein of C6 cells treated 24 hours, fluorometric substrate
Experimental: The C6 glioma cells were treated with different doses of NBM-HD-1 and sodium butyrate (SB). After 24 hours, the cells were harvested to extract the nuclear proteins by NucBuster™ Protein Extraction Kit (Novagen) as described by the manufacturer's instructions. These extracts were then used in HDAC Activity Assay Kit (Calbiochem) to analyze their HDAC (histone deacetylase) inhibition activities. The HDAC fluorometric substrate, which comprises an acetylated lysine side chain, was incubated with extracted nuclear protein first. Deacetylation of the substrate sensitized the substrate, so that, in the second step, treatment with the Lysine Developer produced a fluorophore. The fluorophore can easily be analyzed by using a fluorescence plate reader. […] Inhibition of HDAC has been implicated in the induction of differentiation in cancer cells. In this experiment, a well-known compound for HDAC inhibition, sodium butyrate, was used as a positive control.

cyclinD1, cyclinB1, p21 = experiment: RT-PCR of cell cycle regulator genes in C6 glioma cells; type: cell-based, rat; conditions: GAPDH internal control
Experimental: For the rat C6 glioma cells, the cell cycle related to mRNA expression was examined by RT-PCR. The total RNAs were isolated from the treated C6 cells by using the RNeasy Mini Kit (Qiagen) according to the manufacturer's instructions. The cDNAs were produced from 500 ng of total RNAs using ReverTra-Plus-™ (TOYOBO). The RT product (1 μl) was amplified by PCR with primers to analyze several genes of cell cycle by using GAPDH as an internal control. According to the results of FIG. 3, NBM-HD-1 can modulate the expression of some cell cycle regulators. […] On the contrary, the expression of p21 was increased.

COc1cc2c(c(OC)c1CCC(C)(C)O)C(=O)C[C@@H](c1ccc(OC)c(OC)c1C/C=C(\C)CCCC(C)(C)O)O2 [NBM-HD-1]
morphology of MCF-7 cancer cells ([1]; 2.5, 5, 10 μg/mL, 48 hours): change their morphology
growth of MCF-7 cancer cells ([1]; NBM-HD-1 2.5, 5, 10 μg/mL or 4 mM sodium butyrate, observed after 48 hours, counted after 96 hours): can inhibit the growth of MCF-7 cancer cells in a dose-dependent manner
accumulation of hyperacetylated histone H4 (acetylated histone H4; 10 μg/mL NBM-HD-1 or 4 mM sodium butyrate, 2 hours): can increase the accumulation of hyperacetylated histone H4
time of highest histone acetylation after removal of the compound (acetylated histone H4; 10 μg/mL, 2 hours treatment): 6 h
amount of acetylated histone H4 after removal of the compound (acetylated histone H4; after 2 hours treatment and removal from the culture medium, up to 6 hours): increased over time
GFAP expression (immuno-fluorescent staining) (GFAP; 10 μg/mL, 24 hours): can induce the GFAP expression of C6 glioma cancer cells
GFAP mRNA expression (GFAP; RT-PCR): increased in a dose-dependent manner
HDAC activity (HDAC): significantly inhibits HDAC activity
expression of cyclinD1 and cyclinB1 (cyclinD1, cyclinB1, p21): decrease the expression of cyclinD1 and cyclinB1 in a dose-dependent manner
expression of p21 (cyclinD1, cyclinB1, p21): increased
